BindingDB's records for doi:10.1021/jm801242y (Boehringer Ingelheim Pharmaceuticals, 2009)

Biological target: Serine/threonine-protein kinase pim-2 (Homo sapiens, UniProt Q9P1W9)
Assay: Pim Kinase Dose-Response Assay
Conditions: pH 7.5; 22 °C
Experimental: The activity of Pim kinase was measured in a homogeneous luciferase assay using GST-Pim, biotinylated peptide substrate and a luciferin-luciferase detection reagent to quantify residual ATP. Test compounds were serially diluted for the 10-point concentration response. […] Following incubation, ATP detection reagent was added to the assay plates and the relative light unit (RLU) signal was measured on the Analyst (Molecular Devices) in luminescence mode. The RLU signals were converted to percent of control in dose-response curves. The IC50 was determined as the inflection point parameter.

Chain of Serine/threonine-protein kinase pim-2 (Q9P1W9 whole entry): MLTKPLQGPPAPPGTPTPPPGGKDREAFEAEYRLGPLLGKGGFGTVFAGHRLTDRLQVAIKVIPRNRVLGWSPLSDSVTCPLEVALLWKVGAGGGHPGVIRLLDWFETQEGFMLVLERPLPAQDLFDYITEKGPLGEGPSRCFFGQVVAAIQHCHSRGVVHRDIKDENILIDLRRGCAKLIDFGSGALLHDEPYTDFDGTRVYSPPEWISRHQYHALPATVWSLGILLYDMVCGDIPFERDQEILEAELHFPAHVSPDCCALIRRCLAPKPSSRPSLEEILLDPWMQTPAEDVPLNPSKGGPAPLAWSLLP

Row | Structure (SMILES) | IC50
1 | CN1CCCN(c2cnccn2)CC1 [1-methyl-4-(pyrazin-2-yl)-1,4-diazepane] | > 8000 nM
2 | CN1CCCN(c2cncc(-c3cccc(C=Cc4nnn[nH]4)c3)n2)CC1 [1-methyl-4-(6-{3-[(E)-2-(1H-1,2,3,4-tetrazol-5-yl)ethenyl]phenyl}pyrazin-2-yl)-1,4-diazepane] | 160 nM
